# Experimental data: patent US20040010001A1, “Methods and compositions for modulating cell proliferation and cell death” (priority 1999, published 2004)
# Structures can show the parent of a compound that is named as a salt. Where two headings read alike, the source gives them in different places.
# System: Human prostate PC3 tumor cells
# Assay: aFGF/bFGF-induced resistance and reversal by suramin, sulforhodamine B assay
# Assay type: cell-based
# Protocol: The experimental conditions are described briefly below. […] Cell number was measured using the sulforhodamine B assay which measures the total protein concentration. […] The FGF-induced resistance was dependent on the FGF concentrations, with a higher resistance at higher FGF concentrations.
# [1] = Homo sapiens, read-out: IC50, Control (drug treatment only, without FGF treatment), No suramin, drug 96 hours
# [2] = Homo sapiens, read-out: IC50, aFGF 0.3 ng/ml + bFGF 1 ng/ml, No suramin, FGF pretreatment 96 hours, drug 96 hours
# [3] = Homo sapiens, read-out: IC50, aFGF 1 ng/ml + bFGF 3 ng/ml, No suramin, FGF pretreatment 96 hours, drug 96 hours
# [4] = no suramin, relative to control
# [5] = read-out: IC50, aFGF 0.3 ng/ml + bFGF 1 ng/ml, With suramin, FGF pretreatment 96 hours, drug 96 hours with 15 micromolar suramin
# [6] = read-out: IC50, aFGF 1 ng/ml + bFGF 3 ng/ml, With suramin, FGF pretreatment 96 hours, drug 96 hours with 15 micromolar suramin
# [7] = read-out: IC50, Control (without FGF treatment), Suramin, 15 μM, drug 96 hours with 15 μM suramin
# [8] = read-out: IC50, Control (drug treatment only, without FGF treatment), No suramin, drug 96 hours
# [9] = read-out: IC50, aFGF 0.3 ng/ml + bFGF 1 ng/ml, No suramin, FGF pretreatment 96 hours, drug 96 hours
# [10] = read-out: IC50, aFGF 1 ng/ml + bFGF 3 ng/ml, No suramin, FGF pretreatment 96 hours, drug 96 hours
# [11] = Homo sapiens, 96 h, read-out: IC50, Control (drug treatment only, without FGF treatment), No suramin
# [12] = Homo sapiens, 96 h, read-out: IC50, aFGF 0.3 ng/ml + bFGF 1 ng/ml, No suramin
# [13] = Homo sapiens, 96 h, read-out: IC50, aFGF 1 ng/ml + bFGF 3 ng/ml, No suramin
# [14] = read-out: IC50, Control (without FGF treatment), Suramin, 15 μM
# [15] = read-out: IC50, aFGF 0.3 ng/ml + bFGF 1 ng/ml, With suramin
# [16] = read-out: IC50, aFGF 1 ng/ml + bFGF 3 ng/ml, With suramin
Molecule,IC50 [1] [µM],IC50 [2] [µM],IC50 [3] [µM],"Resistance, Folds, aFGF 0.3 ng/ml + bFGF 1 ng/ml [4] [Folds]","Resistance, Folds, aFGF 1 ng/ml + bFGF 3 ng/ml [4] [Folds]",IC50 [5] [µM],IC50 [6] [µM],IC50 [7] [µM],IC50 [8] [µM],IC50 [9] [µM],IC50 [10] [µM],"Resistance, Folds, aFGF 0.3 ng/ml + bFGF 1 ng/ml [Folds]","Resistance, Folds, aFGF 1 ng/ml + bFGF 3 ng/ml [Folds]",IC50 [11] [µM],IC50 [12] [µM],IC50 [13] [µM],IC50 [14] [µM],IC50 [15] [µM],IC50 [16] [µM]
O=c1[nH]c(=O)n([C@@H]2O[C@H](CO)[C@@H](O)[C@H]2O)cc1F [5-Fluorouridine],0.28,0.44,0.7,1.57,2.50,0.33,0.29,,,,,,,,,,,,
CC[C@]1(O)C[C@@H]2CN(CCc3c([nH]c4ccccc34)[C@@](C(=O)OC)(c3cc4c(cc3OC)N(C)[C@H]3[C@@](O)(C(N)=O)[C@H](O)[C@]5(CC)C=CCN6CC[C@]43[C@@H]65)C2)C1 [Vindesine],0.00039,0.00053,0.00082,,,0.00037,0.00043,0.00035,,,,,,,,,,,
O=c1[nH]c(=O)n([C@H]2C[C@H](O)[C@@H](CO)O2)cc1F [5-fluorodoeoxyuridine],0.00588,0.00903,0.0123,1.54,2.09,0.0066,0.00575,0.00711,,,,,,,,,,,
Nc1ncn([C@H]2C[C@H](O)[C@@H](CO)O2)c(=O)n1 [5-Aza 2′-deoxycytidine],6.63,14,26.3,2.12,3.96,6.54,6.39,6.14,,,,,,,,,,,
CN(Cc1cnc2nc(N)nc(N)c2n1)c1ccc(C(=O)N[C@@H](CCC(=O)O)C(=O)O)cc1 [Methotrexate],32.1,60.6,80.5,1.89,2.51,30.6,33.7,28.8,,,,,,,,,,,
Nc1nc(Cl)nc2c1ncn2[C@H]1C[C@H](O)[C@@H](CO)O1 [Cladribine],0.35,0.46,0.65,1.31,1.86,,0.34,0.36,,,,,,,,,,,
O=NN(CCCl)C(=O)NCCCl [BCNU],33.5,52.2,75.6,1.56,2.26,36.5,33.3,34.2,,,,,,,,,,,
NCCCNc1ccc2c3c(nn2CCNCCO)-c2c(O)ccc(O)c2C(=O)c13 [Piroxantrone Hydrochloride],0.34,0.81,1.28,2.38,3.77,0.33,0.28,0.32,,,,,,,,,,,
N[C@H](C(=O)O)[C@@H]1CC(Cl)=NO1 [Acivicin],1.58,3.34,5.52,2.11,3.49,1.65,1.63,1.28,,,,,,,,,,,
O=C1c2c(O)ccc(O)c2C(=O)c2c(NCCNCCO)ccc(NCCNCCO)c21 [Mitoxantrone],0.18,0.33,0.53,1.83,2.94,,,0.16,,,,,,,,,,,
COc1cc(NCc2ccc3nc(N)nc(N)c3c2C)cc(OC)c1OC [Trimetrexate],0.0336,0.054,0.0959,1.61,2.85,0.0306,0.0289,0.0331,,,,,,,,,,,
N.N.O=C([O-])C1(C(=O)[O-])CCC1.[Pt+2] [Carboplatin],,,,1.68,4.04,2.29,2.31,2.11,2.25,3.79,9.1,,,,,,,,
Nc1ncn([C@@H]2O[C@H](CO)[C@@H](O)[C@H]2O)c(=O)n1 [5-Azacitidine],6.09,13.8,26.4,2.27,4.33,6.45,7.32,6.94,,,,,,,,,,,
"Nc1ncnc2c1ncn2[C@@H]1O[C@H](CO)[C@@H](O)[C@@H]1O [Adenosine arabinoside (Ara-A), Adenosine arabinoside]",,,,1.56,2.13,19,21,22.7,21.5,33.6,45.7,,,,,,,,
O=C1NC(=S)NC(=O)C1C(=O)Nc1ccccc1 [Merbarone],23,46.7,80.8,1.67,2.89,24.9,29.4,28.6,,,,,,,,,,,
CN(C)/N=N/c1[nH]cnc1C(N)=O [Dacarbazine],36.6,53.7,108,1.47,2.95,32.4,39.7,37.6,,,,,,,,,,,
S=P(N1CC1)(N1CC1)N1CC1 [Thiotepa],,,,,,,,,,,,4.96,8.61,3.85,19.1,33.2,4.07,4.09,4.17
O=C(O)CCCc1ccc(N(CCCl)CCCl)cc1 [Chlorambucil],31.9,53.5,88.3,1.67,2.77,44.4,37.6,33.1,,,,,,,,,,,
CC(=O)O[C@@]12CO[C@@H]1C[C@H](O)[C@@]1(C)C(=O)[C@H](O)C3=C(C)[C@@H](OC(=O)[C@H](O)[C@@H](NC(=O)OC(C)(C)C)c4ccccc4)C[C@@](O)([C@@H](OC(=O)c4ccccc4)[C@H]21)C3(C)C [Taxotere],0.00229,,,,,,,0.00202,,,,,,,,,,,
Dihydrolenperone,,,,1.81,3.37,26.1,23.9,28.1,24.6,44.5,82.9,,,,,,,,
O=P1(N(CCCl)CCCl)NCCCO1 (stereo not drawn) [Cyclophosphamide],,,,,,,,,,,,2.18,3.00,0.51,1.11,1.53,0.48,0.57,0.5
NC(=O)c1[nH]nc([C@@H]2O[C@H](CO)[C@@H](O)[C@H]2O)c1O [Pyrazofurin],3.38,4.07,11.1,1.20,3.27,3.65,3.8,3.83,,,,,,,,,,,
CC[C@]1(O)C[C@H]2CN(CCc3c([nH]c4ccccc34)[C@@](C(=O)OC)(c3cc4c(cc3OC)N(C=O)[C@H]3[C@@](O)(C(=O)OC)[C@H](OC(C)=O)[C@]5(CC)C=CCN6CC[C@]43[C@@H]65)C2)C1 [Vincristine],0.00658,,,4.00,6.77,,,0.00682,,,,,,,,,,,
CC(O)CCC(=O)c1ccoc1 (stereo not drawn) [4-Ipomeanol],,,,0.92,1.25,5040,3930,4510,4110,3780,5130,,,,,,,,
"Nc1ccn([C@@H]2O[C@H](CO)[C@@H](O)[C@@H]2O)c(=O)n1 [Cytarabine/Ara-C, Cytarabine]",,,,3.26,8.41,0.42,0.45,0.46,0.39,1.27,3.26,,,,,,,,
NC(=O)c1csc([C@@H]2O[C@H](CO)[C@@H](O)[C@H]2O)n1 [Tiazofurin],7.5,14.6,19.2,1.94,2.57,7.25,6.15,7.9,,,,,,,,,,,
